In one data set the test system is SK-BR-3. Description: Cytotoxicity against human SKBR3 cells after 72 hrs by celltiter-glo assay. Type of data set: functional, cell-based. The following applies: Homo sapiens, SK-BR-3, 72 h.
In data set [1] the target is Heat shock protein HSP 90-beta (Homo sapiens, UniProt P08238). Description: Binding affinity to human recombinant HSP90.
A short description of data set [2]: Dissociation constant, pKa of the compound. Type of data set: physicochemical.
Data set [3] is described as follows: Chemical stability assessed as half life at pH 7.75. Type of data set: physicochemical. The following applies: buffer.
A further data set concerns MCF7. The experiment in a line: Cytotoxicity against human MCF7 cells after 72 hrs by celltiter-glo assay. Type of data set: functional, cell-based. Conditions: MCF7, 72 h. On the technique in general: Cellular ATP, detected with luciferase, serves as a proxy for viable cell number.
The test system of a further data set is SK-OV-3. The experiment in a line: Cytotoxicity against human SKOV3 cells after 72 hrs by celltiter-glo assay. Type of data set: functional, cell-based. The following applies: SK-OV-3, 72 h.
The subject of another data set is A549. Description: Cytotoxicity against human A549 cells after 72 hrs by celltiter-glo assay. Type of data set: functional, cell-based. Conditions: A549, 72 h.
The test system of data set [4] is CCRF-CEM. The experiment in a line: Cytotoxicity against human CCRF-CEM cells after 72 hrs by celltiter-96 aqueous one solution assay. Type of data set: functional, cell-based.
Data set [5] deals with CCRF-CEM. The experiment in a line: Cytotoxicity against human paclitaxel-resistant CCRF-CEM cells after 72 hrs by celltiter-96 aqueous one solution assay. Type of data set: functional, cell-based.

Chain of Heat shock protein HSP 90-beta (P08238 whole entry): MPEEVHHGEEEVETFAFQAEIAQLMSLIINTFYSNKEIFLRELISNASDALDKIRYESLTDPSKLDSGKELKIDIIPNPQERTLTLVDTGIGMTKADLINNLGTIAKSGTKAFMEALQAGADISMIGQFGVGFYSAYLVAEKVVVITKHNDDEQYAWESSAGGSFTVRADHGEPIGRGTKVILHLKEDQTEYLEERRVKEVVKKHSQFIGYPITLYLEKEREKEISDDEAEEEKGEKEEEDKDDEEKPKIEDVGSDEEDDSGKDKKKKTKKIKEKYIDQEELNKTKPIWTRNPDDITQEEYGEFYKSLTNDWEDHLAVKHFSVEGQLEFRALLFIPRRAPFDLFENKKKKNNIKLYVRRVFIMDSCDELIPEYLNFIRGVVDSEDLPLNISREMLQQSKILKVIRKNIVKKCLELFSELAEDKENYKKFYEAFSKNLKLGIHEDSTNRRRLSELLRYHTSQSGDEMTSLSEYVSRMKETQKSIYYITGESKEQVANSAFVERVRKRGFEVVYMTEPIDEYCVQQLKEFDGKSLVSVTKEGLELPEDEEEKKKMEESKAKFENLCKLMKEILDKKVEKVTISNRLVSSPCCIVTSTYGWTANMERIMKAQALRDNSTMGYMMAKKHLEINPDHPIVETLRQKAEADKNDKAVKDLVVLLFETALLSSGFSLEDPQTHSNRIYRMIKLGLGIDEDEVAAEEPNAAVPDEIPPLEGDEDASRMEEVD

As usually defined, the IC50 is the point on the concentration scale where inhibition reaches its midpoint. Read a high IC50 as lower potency. A word on the Kd: it is a measure of binding affinity in units of concentration. A word on the pKa: it is the negative logarithm of the acid dissociation constant. Low values mean a stronger acid or weaker base, high ones a weaker acid or stronger base. With `CO[C@H]1/C=C\C=C(/C)C(=O)NC2=CC(=O)C(NCCN(C)C)=C(C[C@@H](C)C[C@H](OC)[C@H](NCCC(F)(F)F)[C@@H](C)/C=C(\C)[C@@H]1OC(N)=O)C2=O` (stereo in doubt), the IC50 with SK-BR-3 came to 830 nM. In addition, in data set [1], the Kd is above 10000 nM. Also, in [2], the pKa was determined as 8.9.

In turn, `CO[C@H]1/C=C\C=C(/C)C(=O)NC2=CC(=O)C(NCCN(C)C)=C(C[C@@H](C)C[C@H](OC)[C@H](NCC(F)(F)F)[C@@H](C)/C=C(\C)[C@@H]1OC(N)=O)C2=O` (stereo in doubt) registered a half-maximal inhibitory concentration (IC50) in the data set on SK-BR-3 of 270 nM. Moreover, the dissociation constant Kd in data set [1] turned out to be 4000 nM. In addition, the pKa in data set [2] worked out at 5.7.

Broadly, the half-life is how long it takes for the measured level to halve. Consider `C=CCNC1=C2C[C@@H](C)C[C@H](OC)[C@H](OC(=O)CN)[C@@H](C)/C=C(\C)[C@H](OC(N)=O)[C@@H](OC)/C=C\C=C(/C)C(=O)NC(=CC1=O)C2=O` (stereo in doubt), for which 350 nM corresponded to half-maximal inhibition in the data set on SK-BR-3 (IC50). For the same compound, in data set [1], the Kd was above 25000 nM. Moreover, the half-life in [3] is 78 h.

On to `COC1=C2C[C@@H](C)C[C@H](OC)[C@H](OC(=O)CN)[C@@H](C)/C=C(\C)[C@H](OC(N)=O)[C@@H](OC)/C=C\C=C(/C)C(=O)NC(=CC1=O)C2=O` (stereo in doubt), for which, in the data set with SK-BR-3, the IC50 is 480 nM. Also, the Kd in data set [1] was above 25000 nM. In [3], the half-life is 95 h.

The compound `C=CCNC1=C2C[C@@H](C)C[C@H](OC)[C@H](OC(=O)CCN)[C@@H](C)/C=C(\C)[C@H](OC(N)=O)[C@@H](OC)/C=C\C=C(/C)C(=O)NC(=CC1=O)C2=O` (stereo in doubt) registered an IC50 in the data set on SK-BR-3 of 1800 nM. Moreover, the Kd in data set [1] is above 25000 nM. For the same compound, the half-life in data set [3] is 130 h.

In the data set on SK-BR-3, `CO[C@H]1/C=C\C=C(/C)C(=O)NC2=CC(=O)C(NCCN(C)C)=C(C[C@@H](C)C[C@H](OC)[C@H](NCCN(C)C)[C@@H](C)/C=C(\C)[C@@H]1OC(N)=O)C2=O` (stereo in doubt) came in with an IC50 of 460 nM. For the same compound, the Kd in data set [1] was above 50000 nM. The same compound showed a pKa in data set [2] of 6.

As for `COC1=C2C[C@@H](C)C[C@H](OC)[C@H](OC(=O)CCN)[C@@H](C)/C=C(\C)[C@H](OC(N)=O)[C@@H](OC)/C=C\C=C(/C)C(=O)NC(=CC1=O)C2=O` (stereo in doubt), the IC50 in the data set with SK-BR-3 was determined as 1700 nM. For the same compound, in data set [1], the Kd was above 25000 nM. Moreover, in [3], the half-life is 200 h.

In the case of `CO[C@H]1/C=C\C=C(/C)C(=O)NC2=CC(=O)C(NCCN(C)C)=C(C[C@@H](C)C[C@H](OC)[C@H](NCCF)[C@@H](C)/C=C(\C)[C@@H]1OC(N)=O)C2=O` (stereo in doubt), 390 nM corresponded to half-maximal inhibition with SK-BR-3 (IC50). Besides, the Kd in [1] was above 50000 nM. Further, the pKa in [2] turned out to be 9.

`CO[C@H]1/C=C\C=C(/C)C(=O)NC2=CC(=O)C(NCCN(C)C)=C(C[C@@H](C)C[C@H](OC)[C@H](N)[C@@H](C)/C=C(\C)[C@@H]1OC(N)=O)C2=O` (stereo in doubt): the IC50 in the data set with SK-BR-3 came out at 415 nM. Moreover, the Kd in [1] was above 25000 nM. This compound also returned a pKa in data set [2] of 9.2.

On to `COC1=C2C[C@@H](C)C[C@H](OC)[C@H](OC(=O)CCCN)[C@@H](C)/C=C(\C)[C@H](OC(N)=O)[C@@H](OC)/C=C\C=C(/C)C(=O)NC(=CC1=O)C2=O` (stereo in doubt), for which, in the data set with SK-BR-3, the IC50 is above 1000 nM. Further, in data set [1], the Kd was above 10000 nM. For the same compound, the half-life in [3] was above 350 h.

As for `CO[C@H]1[C@@H](OC)C[C@H](C)CC2=C(NCCc3c[nH]cn3)C(=O)C=C(NC(=O)/C(C)=C/C=C\[C@H](OC)[C@@H](OC(N)=O)/C(C)=C/[C@@H]1C)C2=O` (stereo in doubt), the IC50 worked out at 60 nM in the data set on SK-BR-3; 160 nM in the data set on MCF7; 320 nM in the data set with SK-OV-3; 420 nM in the data set on A549; 510 nM in the data set with CCRF-CEM [4]; 3000 nM in the data set with CCRF-CEM [5]. In addition, in data set [1], the Kd stood at 2000 nM.

`CO[C@H]1/C=C\C=C(/C)C(=O)NC2=CC(=O)C(NCCN(C)C)=C(C[C@@H](C)C[C@H](OC)[C@H](NCC(F)F)[C@@H](C)/C=C(\C)[C@@H]1OC(N)=O)C2=O` (stereo in doubt) yielded an IC50 with SK-BR-3 of 370 nM. Further, in data set [1], the Kd was 2900 nM. In [2], this compound came in with a pKa of 7.5.

On to `CNCCNC1=C2C[C@@H](C)C[C@H](OC)[C@H](OC(=O)CN)[C@@H](C)/C=C(\C)[C@H](OC(N)=O)[C@@H](OC)/C=C\C=C(/C)C(=O)NC(=CC1=O)C2=O` (stereo in doubt), for which the IC50 with SK-BR-3 turned out to be 340 nM. The Kd in data set [1] is above 25000 nM. Besides, in data set [3], the half-life is 74 h.

Take `C=CCNC1=C2C[C@@H](C)C[C@H](OC)[C@H](OC)[C@@H](C)/C=C(\C)[C@H](OC(N)=O)[C@@H](OC)/C=C\C=C(/C)C(=O)NC(=CC1=O)C2=O` (stereo in doubt): the IC50 in the data set on SK-BR-3 came out at 280 nM; in the data set on MCF7, 760 nM; in the data set on SK-OV-3, 1300 nM; with A549, 360 nM; in the data set on CCRF-CEM [4], 2500 nM; in the data set with CCRF-CEM [5], 3500 nM. Besides, the Kd in [1] turned out to be 2800 nM.
